From patent US6780875B2, “Quinoline-4-carboxamide derivatives as NK-3 and NK-2 receptor antagonists” (SmithKline Beecham S.p.A., priority 1998, dated 2004) come the findings set out here.

SMILES strings stand for the structures. Structures can show the parent of a compound that is named as a salt.

Broadly, the melting point is the temperature of the solid-liquid transition. Consider `C[C@H](NC(=O)c1c(CN2CCC(N3CCCCC3)CC2)c(-c2ccccc2)nc2ccccc12)C1CCCCC1` (as salt: hydrochloride) [Example 13, 3-[1,4′]Bipiperidinyl-1′-ylmethyl-2-phenyl-quinoline-4-carboxylic acid ((S)-1-cyclohexyl-ethyl)-amide], for which the melting point is 180 to 184 °C.

As for `C[C@H](NC(=O)c1c(CN2CCN(C(=O)Cc3c[nH]cn3)CC2)c(-c2ccccc2)nc2ccccc12)C1CCCCC1`, the melting point was 178 to 210 °C.
